Patent US8431704B2, “Quinoline or isoquinoline substituted P2X7 antagonists” (Janssen Pharmaceutica NV, priority 2008, dated 2013)

Biological target: T1, hP2X7 (Homo sapiens, UniProt Q99572)
T1 construct: expressed in transfected cells; host or cells: 1321N1 astrocytoma cells
T1 sequence (Q99572 1-595): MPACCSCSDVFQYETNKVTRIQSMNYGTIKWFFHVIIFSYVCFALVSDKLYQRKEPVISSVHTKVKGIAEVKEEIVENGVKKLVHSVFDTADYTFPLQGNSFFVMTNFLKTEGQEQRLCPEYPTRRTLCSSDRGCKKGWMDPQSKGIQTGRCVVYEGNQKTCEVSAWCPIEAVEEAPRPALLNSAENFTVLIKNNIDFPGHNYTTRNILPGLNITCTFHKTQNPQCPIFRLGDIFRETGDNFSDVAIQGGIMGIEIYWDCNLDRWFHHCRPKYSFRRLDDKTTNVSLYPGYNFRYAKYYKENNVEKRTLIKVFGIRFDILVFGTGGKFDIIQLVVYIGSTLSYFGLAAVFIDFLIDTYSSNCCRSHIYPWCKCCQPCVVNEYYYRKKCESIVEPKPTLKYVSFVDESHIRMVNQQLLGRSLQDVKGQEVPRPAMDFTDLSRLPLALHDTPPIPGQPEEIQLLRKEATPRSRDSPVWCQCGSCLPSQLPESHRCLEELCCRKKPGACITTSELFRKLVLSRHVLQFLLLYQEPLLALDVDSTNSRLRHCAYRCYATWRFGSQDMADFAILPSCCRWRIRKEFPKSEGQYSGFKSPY
Assay: P2X7 antagonism: ligand-induced Ca2+ flux in 1321N1 astrocytoma cells overexpressing hP2X7
Type: cell-based
Details: pIC50 = -log(IC50), read-out: hP2RX7pIC50 (mean pIC50 values) (converted)
Experimental: Extracellular binding of ATP to P2X7 that is expressed in the cell-membrane opens the ligand gated cation channel and allows Ca^2+ entry into the cell. This ligand-induced Ca^2+ flux was measured in 1321N1 astrocytoma cells overexpressing hP2X7 for the compounds of the present invention.
The calcium assay kit used (Molecular Devices, R8090), provides a Ca^2+ sensitive dye together with a quenching dye. However, no specifications are given by the manufacturer. The kit most likely consists of a membrane permeable acetoxymethyl (AM) ester of a fluorescent Ca^2+ indicator, such as fluo-4 or fluo-3. Upon cellular uptake, the AM esters get cleaved by esterases, liberating the Ca^2+-sensitive dye which can then bind calcium. The dyes have an absorption spectrum compatible with excitation at 488 nm by argon laser sources and a large fluorescence intensity increase in response to Ca^2+ binding without an accompanying spectral shift. Emission wavelength is in the range of 510-560 nm.
The fluorescence, and thus the changes in intracellular [Ca^2+] in the 1321N1 cells was monitored in time before and after addition of the agonist. The effect of the antagonist was measured as % control and as IC50.

Compound: Cc1ncc(C(CNC(=O)c2cccc3nc(N4CCCCC4)ccc23)N2CCOCC2)cn1 (stereo not shown) [Compound 98]
- IC50: 52.5 nM

Compound: CC(C)(C)OC(=O)N1CCN(c2ccc3c(C(=O)NCC(c4cnc(C(F)(F)F)nc4)N4CCCCCC4)cccc3n2)CC1 (stereo not shown) [Compound 107]
- IC50: 389 nM

Compound: O=C(NCC(c1cnc(C(F)(F)F)nc1)N1CCCCCC1)c1cccc2nc(N3CCNCC3)ccc12 (stereo not shown) [Compound 109]
- IC50: 22.4 nM

Compound: CCN1CCN(c2ccc3c(C(=O)NCC(c4cnc(C)nc4)N4CCOCC4)cccc3n2)CC1 (stereo not shown) [Compound 116]
- IC50: 186 nM

Compound: Cc1ncc(C(CNC(=O)c2cccc3nc(OC(C)C)ccc23)N2CCOCC2)cn1 (stereo not shown) [Compound 117]
- IC50: 182 nM

Compound: Cc1ncc(C(CNC(=O)c2cccc3nc(N4CCN(C(C)C)CC4)ccc23)N2CCOCC2)cn1 (stereo not shown) [Compound 118]
- IC50: 162 nM

Compound: Cc1ncc(C(CNC(=O)c2cccc3nc(N4CCCCCC4)ccc23)N2CCOCC2)cn1 (stereo not shown) [Compound 119]
- IC50: 89.1 nM

Compound: CCOc1ccc2c(C(=O)NCC(c3cnc(C)nc3)N3CCOCC3)cccc2n1 (stereo not shown) [Compound 121]
- IC50: 251 nM

Compound: Cc1ncc(C(CNC(=O)c2cccc3nc(N4CCOCC4)ccc23)N2CCOCC2)cn1 (stereo not shown) [Compound 122]
- IC50: 115 nM

Compound: O=C(NCC(c1cnc(C(F)(F)F)nc1)N1CCCC(F)(F)C1)c1cccc2nc(N3CCNCC3)ccc12 (stereo not shown) [Compound 127]
- IC50: 14.1 nM

Compound: O=C(NCC(c1cnc(C(F)(F)F)nc1)N1CCCOCC1)c1cccc2nc(N3CCNCC3)ccc12 (stereo not shown) [Compound 128]
- IC50: 46.8 nM

Compound: Cc1ncc(C(CNC(=O)c2cccc3nc(NCCCO)ccc23)N2CCC(F)(F)CC2)cn1 (stereo not shown) [Compound 132]
- IC50: 63.1 nM

Compound: O=C(NCC(c1cnc(O)nc1)N1CCC(F)(F)CC1)c1cccc2nc(N3CCOCC3)ccc12 (stereo not shown) [Compound 144]
- IC50: 1050 nM

Compound: O=C(NCC(c1cnc(C(F)(F)F)nc1)N1CCC(F)(F)CC1)c1cccc2nc(NCC3CCOCC3)ccc12 (stereo not shown) [Compound 146]
- IC50: 47.9 nM

Compound: O=C(NCC(c1cnc(C(F)(F)F)nc1)N1CCC(F)CC1)c1cccc2nc(N3CC(O)C3)ccc12 (stereo not shown) [Compound 155]
- IC50: 64.6 nM

Compound: COC1CCN(c2ccc3c(C(=O)NCC(c4cnc(C(F)(F)F)nc4)N4CCOCC4)cccc3n2)CC1 (stereo not shown) [Compound 161]
- IC50: 46.8 nM

Compound: O=C(NCC(c1cnc(C(F)(F)F)nc1)N1CCOCC1)c1cccc2nc(N3CCCC3)ccc12 (stereo not shown) [Compound 162]
- IC50: 45.7 nM

Compound: O=C(NCC(c1cnc(C(F)(F)F)nc1)N1CCOCC1)c1cccc2nc(N3CCCCC3)ccc12 (stereo not shown) [Compound 163]
- IC50: 37.2 nM

Compound: CCOc1ccc2c(C(=O)NCC(c3cnc(C(F)(F)F)nc3)N3CCOCC3)cccc2n1 (stereo not shown) [Compound 166]
- IC50: 49 nM

Compound: NC1CCN(c2ccc3c(C(=O)NCC(c4cnc(C(F)(F)F)nc4)N4CCOCC4)cccc3n2)CC1 (stereo not shown) [Compound 167]
- IC50: 117 nM

Compound: CC(C)Nc1ccc2c(C(=O)NCC(c3cnc(C(F)(F)F)nc3)N3CCOCC3)cccc2n1 (stereo not shown) [Compound 168]
- IC50: 75.9 nM

Compound: O=C(NC[C@H](c1cnc(C(F)(F)F)nc1)N1CCC(F)(F)CC1)c1cccc2nc(N3CCNCC3)ccc12 [Compound 171]
- IC50: 26.9 nM

Compound: O=C(NCC(c1cnc(C(F)(F)F)nc1)N1CCOCC1)c1cccc2nc(N3CCC(O)C3)ccc12 (stereo not shown) [Compound 172]
- IC50: 145 nM

Compound: O=C(NCC(c1cnc(C(F)(F)F)nc1)N1CCOCC1)c1cccc2nc(N3CCN(C4CC4)CC3)ccc12 (stereo not shown) [Compound 173]
- IC50: 70.8 nM

Compound: O=C(NC[C@@H](c1cnc(C(F)(F)F)nc1)N1CCC(F)(F)CC1)c1cccc2nc(NC3CC3)ccc12 [Compound 175]
- IC50: 44.7 nM

Compound: O=C(NCC(c1cnc(N2CCCC2)nc1)N1CCC(F)(F)CC1)c1cccc2nc(N3CCOCC3)ccc12 (stereo not shown) [Compound 176]
- IC50: 186 nM

Compound: O=C(NCC(c1cnc(C(F)(F)F)nc1)N1CCOCC1)c1cccc2nc(N3CCC(F)(F)CC3)ccc12 (stereo not shown) [Compound 177]
- IC50: 47.9 nM

Compound: O=C(NCC(c1cnc(C(F)(F)F)nc1)N1CCOCC1)c1cccc2nc(N3CCCOCC3)ccc12 (stereo not shown) [Compound 178]
- IC50: 91.2 nM

Compound: O=C(NCC(c1cnc(C(F)(F)F)nc1)N1CCOCC1)c1cccc2nc(NC3CCCC3)ccc12 (stereo not shown) [Compound 179]
- IC50: 89.1 nM

Compound: CC(C)CNc1ccc2c(C(=O)NCC(c3cnc(C(F)(F)F)nc3)N3CCOCC3)cccc2n1 (stereo not shown) [Compound 180]
- IC50: 67.6 nM

Compound: CC(C)N1CCN(c2ccc3c(C(=O)NCC(c4cnc(C(F)(F)F)nc4)N4CCOCC4)cccc3n2)CC1 (stereo not shown) [Compound 181]
- IC50: 93.3 nM

Compound: CC(C)OCCCNc1ccc2c(C(=O)NCC(c3cnc(C(F)(F)F)nc3)N3CCOCC3)cccc2n1 (stereo not shown) [Compound 182]
- IC50: 112 nM

Compound: O=C(NCC(c1cnc(C(F)(F)F)nc1)N1CCOCC1)c1cccc2nc(NC3CCC3)ccc12 (stereo not shown) [Compound 183]
- IC50: 53.7 nM

Compound: CCCNc1ccc2c(C(=O)NCC(c3cnc(C(F)(F)F)nc3)N3CCOCC3)cccc2n1 (stereo not shown) [Compound 184]
- IC50: 61.7 nM

Compound: COCCCNc1ccc2c(C(=O)NCC(c3cnc(C(F)(F)F)nc3)N3CCOCC3)cccc2n1 (stereo not shown) [Compound 185]
- IC50: 129 nM

Compound: Nc1ncc(C(CNC(=O)c2cccc3nc(N4CCOCC4)ccc23)N2CCC(F)(F)CC2)cn1 (stereo not shown) [Compound 187]
- IC50: 87.1 nM

Compound: CN(C)c1ncc(C(CNC(=O)c2cccc3nc(N4CCOCC4)ccc23)N2CCC(F)(F)CC2)cn1 (stereo not shown) [Compound 188]
- IC50: 69.2 nM

Compound: O=C(NCC(c1cnc(NC2CC2)nc1)N1CCC(F)(F)CC1)c1cccc2nc(N3CCOCC3)ccc12 (stereo not shown) [Compound 189]
- IC50: 110 nM

Compound: O=C(NCC(c1cnc(N2CCCC2)nc1)N1CCC(F)(F)CC1)c1cccc2nc(NC3CC3)ccc12 (stereo not shown) [Compound 190]
- IC50: 77.6 nM

Compound: O=C(NCC(c1cnc(-c2ccccc2)nc1)N1CCC(F)(F)CC1)c1cccc2nc(N3CCOCC3)ccc12 (stereo not shown) [Compound 191]
- IC50: 64.6 nM

Compound: COc1ncc(C(CNC(=O)c2cccc3nc(NC4CC4)ccc23)N2CCC(F)(F)CC2)cn1 (stereo not shown) [Compound 192]
- IC50: 55 nM

Compound: O=C(NCC(c1cnc(-c2ccccc2)nc1)N1CCC(F)(F)CC1)c1cccc2nc(NC3CC3)ccc12 (stereo not shown) [Compound 193]
- IC50: 61.7 nM

Compound: Nc1ncc(C(CNC(=O)c2cccc3nc(NC4CC4)ccc23)N2CCC(F)(F)CC2)cn1 (stereo not shown) [Compound 194]
- IC50: 178 nM

Compound: CN(C)c1ncc(C(CNC(=O)c2cccc3nc(NC4CC4)ccc23)N2CCC(F)(F)CC2)cn1 (stereo not shown) [Compound 195]
- IC50: 72.4 nM

Compound: CC(C)C1CCN(c2ccc3c(C(=O)NCC(c4cnc(C(F)(F)F)nc4)N4CCOCC4)cccc3n2)CC1 (stereo not shown) [Compound 196]
- IC50: 195 nM

Compound: O=C(NCC(c1cnc(C(F)(F)F)nc1)N1CCOCC1)c1cccc2nc(N3CCN(CCO)CC3)ccc12 (stereo not shown) [Compound 197]
- IC50: 120 nM

Compound: CN1CCN(c2ccc3c(C(=O)NCC(c4cnc(C(F)(F)F)nc4)N4CCOCC4)cccc3n2)CC1 (stereo not shown) [Compound 198]
- IC50: 77.6 nM

Compound: CC(C)N1CCN(c2ccc3c(C(=O)NCC(c4cnc(N(C)C)nc4)N4CCOCC4)cccc3n2)CC1 (stereo not shown) [Compound 199]
- IC50: 407 nM

Compound: COc1ncc(C(CNC(=O)c2cccc3nc(N4CCN(C(C)C)CC4)ccc23)N2CCC(F)(F)CC2)cn1 (stereo not shown) [Compound 200]
- IC50: 51.3 nM

Compound: CC(C)N1CCN(c2ccc3c(C(=O)NCC(c4cnc(-c5ccccc5)nc4)N4CCC(F)(F)CC4)cccc3n2)CC1 (stereo not shown) [Compound 201]
- IC50: 115 nM

Compound: O=C(NCC(c1cnc(N2CCNCC2)nc1)N1CCC(F)(F)CC1)c1cccc2nc(NC3CC3)ccc12 (stereo not shown) [Compound 202]
- IC50: 115 nM

Compound: CC(C)N1CCN(c2ccc3c(C(=O)NCC(c4cnc(N5CCOCC5)nc4)N4CCC(F)(F)CC4)cccc3n2)CC1 (stereo not shown) [Compound 203]
- IC50: 67.6 nM

Compound: O=C(NCC(c1cnc(OC2CCC2)nc1)N1CCC(F)(F)CC1)c1cccc2nc(N3CCCC3)ccc12 (stereo not shown) [Compound 204]
- IC50: 47.9 nM

Compound: O=C(NCC(c1cnc(N2CCOCC2)nc1)N1CCC(F)(F)CC1)c1cccc2nc(NC3CC3)ccc12 (stereo not shown) [Compound 205]
- IC50: 64.6 nM

Compound: CN(C)c1ncc(C(CNC(=O)c2cccc3nc(N4CCCC4)ccc23)N2CCC(F)(F)CC2)cn1 (stereo not shown) [Compound 206]
- IC50: 105 nM

Compound: CCc1ncc(C(CNC(=O)c2cccc3nc(NC4CC4)ccc23)N2CCOCC2)cn1 (stereo not shown) [Compound 207]
- IC50: 138 nM

Compound: O=C(NCC(c1cncnc1)N1CCC(F)(F)CC1)c1cccc2nc(N3CCCC3)ccc12 (stereo not shown) [Compound 208]
- IC50: 45.7 nM

Compound: CC(C)N1CCN(c2ccc3c(C(=O)NCC(c4cnc(N(C)C)nc4)N4CCC(F)(F)CC4)cccc3n2)CC1 (stereo not shown) [Compound 209]
- IC50: 117 nM

Compound: CC(C)c1ncc(C(CNC(=O)c2cccc3nc(N4CCCC4)ccc23)N2CCOCC2)cn1 (stereo not shown) [Compound 210]
- IC50: 372 nM

Compound: O=C(NCC(c1cncnc1)N1CCC(F)(F)CC1)c1cccc2nc(NCC3CC3)ccc12 (stereo not shown) [Compound 211]
- IC50: 79.4 nM

Compound: CCOc1ncc(C(CNC(=O)c2cccc3nc(N4CCCC4)ccc23)N2CCC(F)(F)CC2)cn1 (stereo not shown) [Compound 212]
- IC50: 41.7 nM
